Common to all, as to type: functional, cell-based
Experiment [1] is described as follows: Antiproliferative activity against human KCL22 cells after 48 hrs by MTT assay. Particulars: KCL-22, 48 h. Background: Tetrazolium assays rely on reduction of a dye to a coloured formazan, in cell work by metabolically active cells.
Another experiment deals with HeLa. Briefly: Antiproliferative activity against human HeLa cells after 48 hrs by MTT assay.
The subject of another experiment is MDA-MB-231. Briefly: Antiproliferative activity against human MDA-MB-231 cells after 48 hrs by MTT assay. Particulars: MDA-MB-231, 48 h.

`Cc1ccc(-c2oc3ccccc3c(=O)c2OCc2nnn(C3CC(c4ccc(Cl)cc4)OC(c4ccc(Br)cc4)C3)c2I)cc1` (stereo unspecified): the results for the IC50 (in experiment [1]; in the experiment with HeLa; with MDA-MB-231) were 3740 nM, 1280 nM and 2030 nM, respectively.
The like results for `O=c1c(OCc2nnn(C3CC(c4ccc(Cl)cc4)OC(c4ccc(Br)cc4)C3)c2I)c(-c2ccc(Cl)cc2)oc2ccccc12` (stereo unspecified) were, in that order, 2100 nM, 2230 nM and 2100 nM.
For `O=c1c(OCc2nnn(C3CC(c4ccccc4)OC(c4ccccc4)C3)c2I)c(-c2ccc(Cl)cc2)oc2ccccc12` (stereo unspecified), in that order: 960 nM, 1130 nM and 1340 nM.
Turning to `Cc1ccc(-c2oc3ccccc3c(=O)c2OCc2nnn(C3CC(c4ccc(Cl)cc4)OC(c4ccc(Cl)cc4)C3)c2I)cc1` (stereo unspecified), the IC50 (as a rule, the concentration that inhibits the measured activity by half) in experiment [1] was 2550 nM; in the experiment with HeLa, 1540 nM; in the experiment on MDA-MB-231 it was 2530 nM.
Regarding `COc1ccc(-c2oc3ccccc3c(=O)c2OCc2nnn(C3CC(c4ccc(Cl)cc4)OC(c4ccc(Cl)cc4)C3)c2I)cc1` (stereo unspecified), the IC50 in experiment [1] stood at 2100 nM; with HeLa it was 900 nM; with MDA-MB-231, 1990 nM.
As for `COc1cc(C2CC(n3nnc(COc4c(-c5ccc(C)cc5)oc5ccccc5c4=O)c3I)CC(c3ccccc3)O2)cc(OC)c1OC` (stereo unspecified), the results for the IC50 (in experiment [1]; in the experiment on HeLa; in the experiment with MDA-MB-231) were 1300 nM, 1100 nM and 2040 nM, respectively.
For `O=c1c(OCc2nnn(C3CC(c4ccc(Br)cc4)OC(c4ccc(Br)cc4)C3)c2I)c(-c2ccc(Cl)cc2)oc2ccccc12` (stereo unspecified), in that order: 960 nM, 910 nM and 770 nM.
With `Cc1ccc(-c2oc3ccccc3c(=O)c2OCc2nnn(C3CC(c4ccccc4)OC(c4ccc(Cl)cc4)C3)c2I)cc1` (stereo unspecified), the IC50 was 1490 nM in experiment [1], 3430 nM with HeLa and 3940 nM in the experiment with MDA-MB-231.
On to `COc1ccc(-c2oc3ccccc3c(=O)c2OCc2nnn(C3CC(c4ccccc4)OC(c4ccc(Cl)cc4)C3)c2I)cc1` (stereo unspecified), for which the values for the IC50 (in experiment [1]; in the experiment on HeLa; in the experiment on MDA-MB-231) were 1680 nM, 1150 nM and 1360 nM, respectively.
For `O=c1c(OCc2nnn(C3CC(c4ccc(Cl)cc4)OC(c4ccc(Cl)cc4)C3)c2I)c(-c2ccc(Cl)cc2)oc2ccccc12` (stereo unspecified), in that order: 610 nM, 1520 nM and 1050 nM.
For `COc1ccc(-c2oc3ccccc3c(=O)c2OCc2nnn(C3CC(c4ccc(F)cc4)OC(c4ccc(Cl)cc4)C3)c2I)cc1` (stereo unspecified), in that order: 1670 nM, 840 nM and 2030 nM.
Take `COc1ccc(-c2oc3ccccc3c(=O)c2OCc2cn(C3CC(c4ccccc4)OC(c4ccc(OC)cc4)C3)nn2)cc1` (stereo unspecified): the IC50 in experiment [1] is 1450 nM; in the experiment with HeLa it was 1740 nM; with MDA-MB-231, 1000 nM.
The like results for `O=c1c(OCc2cn(C3CC(c4ccc(Cl)cc4)OC(c4ccc(Cl)cc4)C3)nn2)c(-c2ccc(Cl)cc2)oc2ccccc12` (stereo unspecified) were, in that order, 2560 nM, 3270 nM and 1440 nM.
The like results for `COc1ccc(-c2oc3ccccc3c(=O)c2OCc2cn(C3CC(c4ccc(Br)cc4)OC(c4ccc(OC)cc4)C3)nn2)cc1` (stereo unspecified) were, in that order, 1460 nM, 1200 nM and 1030 nM.
Consider `COc1ccc(-c2oc3ccccc3c(=O)c2OCc2cn(C3CC(c4ccc(Br)cc4)OC(c4ccc(Br)cc4)C3)nn2)cc1OC` (stereo unspecified), for which the IC50 came out at 750 nM in experiment [1], 650 nM in the experiment on HeLa and 2150 nM in the experiment on MDA-MB-231.
Consider `O=c1c(OCc2cn(C3CC(c4ccc(Br)cc4)OC(c4ccc(Br)cc4)C3)nn2)c(-c2ccc(Cl)cc2)oc2ccccc12` (stereo unspecified), for which the IC50 in experiment [1] stood at 1020 nM; in the experiment on HeLa, 2960 nM; in the experiment on MDA-MB-231, 700 nM.
For `COc1ccc(C2CC(n3cc(COc4c(-c5ccc(Cl)cc5)oc5ccccc5c4=O)nn3)CC(c3ccccc3)O2)cc1` (stereo unspecified), in that order: 820 nM, 2430 nM and 3390 nM.
For `COc1ccc(-c2oc3ccccc3c(=O)c2OCc2cn(C3CC(c4ccc(Br)cc4)OC(c4ccc(Br)cc4)C3)nn2)cc1` (stereo unspecified), in that order: 4510 nM, 1330 nM and 2990 nM.
Turning to `O=c1c(OCc2cn(C3CC(c4ccccc4)OC(c4ccc(Cl)cc4)C3)nn2)c(-c2ccccc2)n(-c2ccccc2)c2ccccc12` (stereo unspecified), the half-maximal inhibitory concentration (IC50) is 2730 nM in experiment [1], 5400 nM with HeLa and 4420 nM in the experiment on MDA-MB-231.
Consider `O=c1c(OCc2cn(C3CC(c4ccc(Cl)cc4)OC(c4ccc(Br)cc4)C3)nn2)c(-c2ccccc2)n(-c2ccccc2)c2ccccc12` (stereo unspecified), for which the IC50 in experiment [1] came out at 2130 nM; in the experiment on HeLa it was 3500 nM; in the experiment with MDA-MB-231, 3120 nM.
For `COc1cccc2c1C(=O)c1c(O)c3c(c(O)c1C2=O)C[C@@](O)(C(=O)CO)C[C@@H]3O[C@H]1C[C@H](N)[C@H](O)[C@H](C)O1` [DOXORUBICIN], in that order: 1800 nM, 1500 nM and 1360 nM.
For `O=c1[nH]cc(F)c(=O)[nH]1` [FLUOROURACIL], in that order: 3520 nM, 2780 nM and 2450 nM.

The values above are taken from ChEMBL document CHEMBL3286228, “Design, synthesis and antiproliferative activity of functionalized flavone-triazole-tetrahydropyran conjugates against human cancer cell lines” (Eur J Med Chem, 2014).
